According to patent US7335669B2, “Use of dihydroquinoline to aid in increasing milk production and feed utilization” (Novus International, Inc., priority 2002, dated 2008):

Tests used:
[1] = tested on: cows; assay: Example 1: two-week feeding regimen at four ethoxyquin concentration levels, twenty-four cows; type: in vivo
From the text: Each of twenty-four cows was randomly assigned to a feeding regimen of one of four concentration levels of ethoxyquin (0 ppm, 50 ppm, 100 ppm, and 150 ppm by weight on an as fed basis) for a two-week treatment period. Data were collected before and after the feeding regimen. The results were as follows, wherein the ethoxyquin concentration (“Ethox. Dose”) is presented in ppm by weight, on an as fed basis and “TMR” represents the total mixed ration consumed by the cows in pounds per day: […]

[2] = tested on: lactating dairy cows; assay: Example 2: switch-over pen trial, ethoxyquin 65 ppm in feed for three weeks, approximately 2400 lactating dairy cows; type: in vivo
From the text: Approximately 2400 lactating dairy cows were divided into two treatment groups of four pens per group. The cows in one of the two groups were fed ethoxyquin (at a concentration of 65 ppm by weight based on the weight of the total feed fed to the cows) for three weeks, with the four pens of the other group serving as controls. For the next two weeks, neither of the groups was fed ethoxyquin. The pens were then switched so that the previous control group was fed ethoxyquin (at a concentration of 65 ppm by weight based on the weight of the total feed fed to the cows) for three weeks. Milk production and feed intake were measured and feed efficiencies were calculated. The following table reports the means and pooled SEM results after correction for pen effects (wherein “Treated” refers to the cows receiving the ethoxyquin): […]

[3] = Detection of ethoxyquin in milk from cattle treated by the method; type: in vivo
From the text: Of course, measurement of chemical levels has limitations. […] In any event, the level of ethoxyquin in the milk produced according to this invention certainly is less than 0.1 ppm by weight.

[4] = about 125 to about 150 ppm by weight on DMI basis in diet of dairy cattle; cited from earlier work
[5] = tested on: broilers and layers; conditions: cited from earlier work
[6] = poultry and lambs, dietary ethoxyquin; cited from earlier work
[7] = ethoxyquin 50 ppm by weight as fed basis
[8] = ethoxyquin 100 ppm as fed basis
[9] = ethoxyquin 100 ppm by weight as fed basis
[10] = ethoxyquin 150 ppm as fed basis
[11] = ethoxyquin 150 ppm by weight as fed basis
[12] = ethoxyquin 65 ppm by weight of total feed, three weeks, mean after correction for pen effects

CCOc1ccc2c(c1)C(C)=CC(C)(C)N2 [ethoxyquin, 6-ethoxy-1,2-dihydro-2,2,4-trimethylquinoline]
Enhancement of milk production, comparison of concentrations ([1]; 50 ppm vs 150 ppm by weight, as fed basis): 50 ppm has yielded greater enhancement of milk production than has 150 ppm | Feed Intake (as fed basis), TMR in First Week ([1]; ethoxyquin 50 ppm as fed basis): 91 pounds per day | Milk Production Based on Feed Efficiency, Lbs. Milk / TMR in First Week ([1]; ethoxyquin 50 ppm as fed basis): 0.87 lbs. Milk Produced/pounds TMR Intake | Feed Intake (as fed basis), TMR in Second Week ([1]; ethoxyquin 50 ppm as fed basis): 91 pounds per day | Milk Production Based on Feed Efficiency, Lbs. Milk / TMR in Second Week ([1]; ethoxyquin 50 ppm as fed basis): 0.91 lbs. Milk Produced/pounds TMR Intake | Milk Produced During First Week [1, 7]: 79 lbs./day | Milk Produced During Second Week [1, 7]: 82 lbs./day | Feed Intake (as fed basis), TMR in First Week [1, 8]: 92 pounds per day | Milk Production Based on Feed Efficiency, Lbs. Milk / TMR in First Week [1, 8]: 0.80 lbs. Milk Produced/pounds TMR Intake | Feed Intake (as fed basis), TMR in Second Week [1, 8]: 91 pounds per day | Milk Production Based on Feed Efficiency, Lbs. Milk / TMR in Second Week [1, 8]: 0.79 lbs. Milk Produced/pounds TMR Intake | Milk Produced During First Week [1, 9]: 74 lbs./day | Milk Produced During Second Week [1, 9]: 72 lbs./day | Feed Intake (as fed basis), TMR in First Week [1, 10]: 92 pounds per day | Milk Production Based on Feed Efficiency, Lbs. Milk / TMR in First Week [1, 10]: 0.76 lbs. Milk Produced/pounds TMR Intake | Feed Intake (as fed basis), TMR in Second Week [1, 10]: 92 pounds per day | Milk Production Based on Feed Efficiency, Lbs. Milk / TMR in Second Week [1, 10]: 0.80 lbs. Milk Produced/pounds TMR Intake | Milk Produced During First Week [1, 11]: 70 lbs./day | Milk Produced During Second Week [1, 11]: 74 lbs./day | Difference in milk production, treated vs control ([2]; ethoxyquin 65 ppm): little difference in milk production | Feed Efficiency As Fed Basis ([2]; ethoxyquin 65 ppm by weight of total feed, three weeks, calculated from milk production and feed intake): 0.89 | Feed Intake As Fed Basis [2, 12]: 93.5 lbs./day | Feed Intake DMI Basis [2, 12]: 60.3 lbs./day | Milk Production [2, 12]: 83.4 lbs./day | Improvement in feed efficiency (pounds of milk produced per pounds of TMR intake) ([2]; ethoxyquin 65 ppm vs control, printed as on a dry matter basis): 4.7% | Ethoxyquin detected in milk ([3]; milk from cattle treated by the method of the invention): no ethoxyquin has been detected | Level of ethoxyquin in the milk ([3]; milk produced according to the invention): less than 0.1 ppm by weight | Ethoxyquin residue in milk [4]: appearance of ethoxyquin in the fat of the resulting milk | Effectiveness relative to alpha-tocopherol acetate ([5]; broiler study, 150 ppm ethoxyquin in feed): as effective as about 15 ppm alpha-tocopherol acetate | Lipid oxidation in muscle tissues ([5]; dietary ethoxyquin, broilers 75 to 150 ppm, layers 500 ppm in feed): prevent lipid oxidation in muscle tissues in broilers and layers | Ethoxyquin in muscle tissue [6]: detected in the muscle tissue of poultry and lambs
